Values after ≈ are worked out from the molar mass of the structure shown.
Columns and labels:
[1] = In vitro stability in plasma, microsomes and hepatocytes; type: in vitro ADME; conditions: liver microsomes and hepatocytes
Method: Bioanalytical data analyses were carried out using Analyst software (version 1.4.1, Applied Biosystems, Toronto, ON, Canada). […] PK parameters were determined by noncompartmental analysis using WinNonLin. Plasma protein binding was determined using equilibrium dialysis. In vitro stability was determined using commercially available plasma, microsomes and hepatocytes.

Enterobacteriaceae (ENT) = assay: MIC, CLSI broth microdilution, worldwide isolates: Enterobacteriaceae; type: cell-based
Excerpt: (§1) In the first study, a total of 235 isolates were collected from medical centers worldwide and tested for susceptibility to Compound 1 and comparator agents by CLSI broth microdilution methods. […] Non-ENT GN pathogens included WT P. aeruginosa (PSA) and Acinetobacter spp. (ACB), and carbapenem (CARB)-R strains, including those with MBL and OXA enzymes, SA and coagulase-negative staphylococci (CoNS) included oxacillin-susceptible (MSSA/MS-CoNS) and —R (MRSA/MR-CoNS) strains.
(§2) Minimum inhibitory concentrations (MIC) were determined by reference Clinical and Laboratory Standards Institute (CLSI) broth microdilution methods per M7-A7 [2006]. Briefly, serial two-fold dilutions of Compound 1 and comparator AGs (together, “the test compounds”) were prepared at 2× concentration in appropriate diluent. The dilutions were mixed in 96-well assay plates with bacterial inoculum. Bacteria were suspended in sterile saline and added to each assay plate to obtain a final concentration of 5.5×10^5 CFU/mL. The plates were incubated at 35° C. for 20 hours in ambient air. […] After incubation, assay plates were read using a microtiter plate reader at 600 nm.

Acinetobacter spp. (ACB) = assay: MIC, CLSI broth microdilution, worldwide isolates: Acinetobacter spp.; type: cell-based
Excerpt: as §1, §2

[2] = Enterobacteriaceae, KPC, NMC, SME (15)

## CN[C@@H]1[C@@H](O)[C@@H](O[C@@H]2[C@@H](O)[C@H](O[C@H]3OC(CNCCO)=CC[C@H]3N)[C@@H](N)C[C@H]2NC(=O)[C@@H](O)CCN)OC[C@]1(C)O [Compound 1, 6′-(2-Hydroxy-ethyl)-1-(4-amino-2(S)-hydroxy-butyryl)-sisomicin]
[1]
  in vitro stability: stable
Enterobacteriaceae (ENT)
  MIC50: ≤ 0.25 µg/mL
  MIC90: 2 µg/mL (≈ 3.37 µM)
Enterobacteriaceae (ENT); Enterobacteriaceae (125)
  Cumulative % inhibited at Cmpd. MIC 1: 80.0%
  Cumulative % inhibited at Cmpd. MIC 2: 92.0%
  Cumulative % inhibited at Cmpd. MIC 4: 98.4%
  Cumulative % inhibited at Cmpd. MIC 8: 98.4%
  Cumulative % inhibited at Cmpd. MIC 16: 98.4%
  Cumulative % inhibited at Cmpd. MIC 32: 98.4%
  Cumulative % inhibited at Cmpd. MIC 64: 98.4%
  Cumulative % inhibited at Cmpd. MIC >64: 100.0%
  Cumulative % inhibited at Cmpd. MIC ≦0.5: 56.0%
Enterobacteriaceae (ENT); Enterobacteriaceae, AmpC (20)
  Cumulative % inhibited at Cmpd. MIC 1: 85.0%
  Cumulative % inhibited at Cmpd. MIC 2: 95.0%
  Cumulative % inhibited at Cmpd. MIC 4: 95.0%
  Cumulative % inhibited at Cmpd. MIC 8: 95.0%
  Cumulative % inhibited at Cmpd. MIC 16: 95.0%
  Cumulative % inhibited at Cmpd. MIC 32: 95.0%
  Cumulative % inhibited at Cmpd. MIC 64: 95.0%
  Cumulative % inhibited at Cmpd. MIC >64: 100.0%
  Cumulative % inhibited at Cmpd. MIC ≦0.5: 75.0%
Enterobacteriaceae (ENT); Enterobacteriaceae, ESBL (20)
  Cumulative % inhibited at Cmpd. MIC 1: 90.0%
  Cumulative % inhibited at Cmpd. MIC 2: 95.0%
  Cumulative % inhibited at Cmpd. MIC 4: 95.0%
  Cumulative % inhibited at Cmpd. MIC 8: 95.0%
  Cumulative % inhibited at Cmpd. MIC 16: 95.0%
  Cumulative % inhibited at Cmpd. MIC 32: 95.0%
  Cumulative % inhibited at Cmpd. MIC 64: 95.0%
  Cumulative % inhibited at Cmpd. MIC >64: 100.0%
  Cumulative % inhibited at Cmpd. MIC ≦0.5: 65.0%
Enterobacteriaceae (ENT); [2]
  Cumulative % inhibited at Cmpd. MIC 1: 100.0%
  Cumulative % inhibited at Cmpd. MIC ≦0.5: 60.0%
Enterobacteriaceae (ENT); Enterobacteriaceae, MBL (10)
  Cumulative % inhibited at Cmpd. MIC 1: 80.0%
  Cumulative % inhibited at Cmpd. MIC 2: 90.0%
  Cumulative % inhibited at Cmpd. MIC 4: 100.0%
  Cumulative % inhibited at Cmpd. MIC ≦0.5: 80.0%
Enterobacteriaceae (ENT); Enterobacteriaceae, WT (60)
  Cumulative % inhibited at Cmpd. MIC 1: 70.0%
  Cumulative % inhibited at Cmpd. MIC 2: 88.3%
  Cumulative % inhibited at Cmpd. MIC 4: 100.0%
  Cumulative % inhibited at Cmpd. MIC ≦0.5: 41.7%
Acinetobacter spp. (ACB); ACB (30)
  Cumulative % inhibited at Cmpd. MIC 1: 10.0%
  Cumulative % inhibited at Cmpd. MIC 2: 23.3%
  Cumulative % inhibited at Cmpd. MIC 4: 26.7%
  Cumulative % inhibited at Cmpd. MIC 8: 66.7%
  Cumulative % inhibited at Cmpd. MIC 16: 70.0%
  Cumulative % inhibited at Cmpd. MIC 32: 90.0%
  Cumulative % inhibited at Cmpd. MIC 64: 100.0%
  Cumulative % inhibited at Cmpd. MIC ≦0.5: 3.3%
Acinetobacter spp. (ACB); ACB, CARB-R (20)
  Cumulative % inhibited at Cmpd. MIC 1: 15.0%
